In ChEMBL document CHEMBL1201862, “PubChem BioAssay data set” (2004):
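Exposure lasted 48 hours, with cells grown in 96-well plates and compounds tested at five concentrations. At the GI50, growth is halved.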 Active and inactive are the calls of the source. Rule as the data show it: active = GI50 up to about 1.1 µM and inactive = higher.

Key:
Assay in all cases: DTP human tumour cell line panel, 48 h
A498 = system: A498
BT-549 = system: BT-549
CAKI-1 = system: CAKI-1
CCRF-CEM = system: CCRF-CEM
HCT-15 = system: HCT-15
HL-60 = system: HL-60
MDA-MB-435 = system: MDA-MB-435
MDA-N = system: MDA-N
NCI-H226 = system: NCI-H226
NCI-H23 = system: NCI-H23
NCI-H460 = system: NCI-H460
NCI-H522 = system: NCI-H522
OVCAR-5 = system: OVCAR-5
RXF 393 = system: RXF 393
SF-539 = system: SF-539
SK-MEL-2 = system: SK-MEL-2
SN12C = system: SN12C
SNB-19 = system: SNB-19
SW-620 = system: SW-620
TK-10 = system: TK-10

SMILES	GI50 (A498)	GI50 (BT-549)	GI50 (CAKI-1)	GI50 (CCRF-CEM)	GI50 (HCT-15) [µM]	GI50 (HL-60)	GI50 (MDA-MB-435)	GI50 (MDA-N)	GI50 (NCI-H226)	GI50 (NCI-H23)	GI50 (NCI-H460)	GI50 (NCI-H522)	GI50 (OVCAR-5)	GI50 (RXF 393)	GI50 (SF-539)	GI50 (SK-MEL-2)	GI50 (SN12C)	GI50 (SNB-19)	GI50 (SW-620)	GI50 (TK-10)
CC1(C)N=C(N)N=C(N)N1c1cccc(OCc2cccc(N)c2)c1	> 93.1 µM (inactive)	> 65.9 µM (inactive)	> 100 µM (inactive)	4.85 µM (inactive)	> 100	5.61 µM (inactive)	16.4 µM (inactive)	6.1 µM (inactive)	> 100 µM (inactive)	14.2 µM (inactive)	3.87 µM (inactive)	26.4 µM (inactive)	26.9 µM (inactive)	41.9 µM (inactive)	19.9 µM (inactive)	> 100 µM (inactive)	19 µM (inactive)	23.8 µM (inactive)	> 100 µM (inactive)	> 52.1 µM (inactive)
Clc1ccc(-c2c(C3=NCCCN3)nnn2-c2ccc(Cl)cc2)cc1	29.4 µM (inactive)	> 55.1 µM (inactive)	60.1 µM (inactive)	31.8 µM (inactive)	75.5	17.5 µM (inactive)	19.2 µM (inactive)	19.1 µM (inactive)	60.3 µM (inactive)	> 79.1 µM (inactive)	40.9 µM (inactive)	32.9 µM (inactive)	35.3 µM (inactive)	17.7 µM (inactive)	31.4 µM (inactive)	17.4 µM (inactive)	64 µM (inactive)	> 68.7 µM (inactive)	49.8 µM (inactive)	40 µM (inactive)
CCOC(=O)NC(Nc1ccc(OC(F)(F)F)cc1)(C(F)(F)F)C(F)(F)F	> 100 µM (inactive)	> 100 µM (inactive)	> 100 µM (inactive)	> 100 µM (inactive)	> 100	> 100 µM (inactive)	> 100 µM (inactive)	> 100 µM (inactive)	> 100 µM (inactive)	> 100 µM (inactive)	> 100 µM (inactive)	> 100 µM (inactive)	> 100 µM (inactive)	> 100 µM (inactive)	> 100 µM (inactive)	> 100 µM (inactive)	> 100 µM (inactive)	> 100 µM (inactive)	> 100 µM (inactive)	> 100 µM (inactive)
COc1ccc(-c2cc(-c3ccccc3)n(C3OCC(OC(C)=O)C(OC(C)=O)C3OC(C)=O)c(=S)c2C#N)cc1 (centres undefined)	72.9 µM (inactive)	> 100 µM (inactive)	67.5 µM (inactive)	> 100 µM (inactive)	> 100	> 100 µM (inactive)	> 100 µM (inactive)	54.5 µM (inactive)	20 µM (inactive)	> 100 µM (inactive)	9.42 µM (inactive)	66.5 µM (inactive)	87.1 µM (inactive)	37.5 µM (inactive)	> 100 µM (inactive)	25 µM (inactive)	> 100 µM (inactive)	> 100 µM (inactive)	> 100 µM (inactive)	63 µM (inactive)
N#Cc1c(N)n(-c2nc3ccccc3s2)c(=O)c2cc([N+](=O)[O-])ccc12	17.1 µM (inactive)	21.2 µM (inactive)	20.9 µM (inactive)	0.0453 µM (active)	4.04	7.74 µM (inactive)	25 µM (inactive)	25.9 µM (inactive)	6.93 µM (inactive)	9.38 µM (inactive)	6.32 µM (inactive)	6.49 µM (inactive)	24.8 µM (inactive)	7.62 µM (inactive)	12.4 µM (inactive)	15.4 µM (inactive)	23.1 µM (inactive)	17.7 µM (inactive)	26.2 µM (inactive)	23.6 µM (inactive)
CCOC(=O)c1sc2nc(SC)nc(Nc3ccc4c(c3)OCCO4)c2c1N	11.9 µM (inactive)	16 µM (inactive)	22.9 µM (inactive)	16.9 µM (inactive)	–	> 100 µM (inactive)	18 µM (inactive)	10.4 µM (inactive)	3.33 µM (inactive)	14.2 µM (inactive)	17.5 µM (inactive)	6.76 µM (inactive)	17.1 µM (inactive)	3.93 µM (inactive)	7.52 µM (inactive)	15 µM (inactive)	8.49 µM (inactive)	17.6 µM (inactive)	19.5 µM (inactive)	15.2 µM (inactive)
O=C1C(Cl)=CC2(C=C1Cl)CCNC1=C2C(=O)c2nc[nH]c2C1=O	36.6 µM (inactive)	26.3 µM (inactive)	64.4 µM (inactive)	30.8 µM (inactive)	46	24.4 µM (inactive)	18.2 µM (inactive)	18.5 µM (inactive)	75.2 µM (inactive)	27.2 µM (inactive)	40.3 µM (inactive)	21.1 µM (inactive)	> 100 µM (inactive)	23.2 µM (inactive)	33.5 µM (inactive)	17.3 µM (inactive)	36.5 µM (inactive)	32.3 µM (inactive)	26.9 µM (inactive)	> 100 µM (inactive)
